The record followed here is ChEMBL document CHEMBL3988442, “University of Dundee, Small-Polar-MMV Screening Library” (2021).

Where “and” joins values, the source holds several entries; their conditions need not be identical. Equal values may be shown once.

A short description of this assay: In vitro enzyme assay to detect hydrolysis of chlorophenol red-beta-D-[…] directly proportional to the number of Toxoplasma stably expressing beta-galactosidase. The following applies: for IC50: Toxoplasma gondii. It is filed as functional, organism-based, Toxoplasma gondii.

Usually IC50 stands for the concentration needed to halve the response being measured. Compound `CC(C)(CO)NCC(O)c1cccc(Cl)c1` (stereo not given) showed an IC50 above 50.1 µM. Same read-out and setting: with `CC(C)NC(=O)C1CN(C(=O)CCc2ccccc2)CC12CCOCC2` (stereo not given) the figure was above 50.1 µM; with `CC(C)n1ccc(CN2C(=O)CC(C)(C)C2=O)n1`, above 50.1 µM. The same measure, in the same setting: with `CN(CCNS(C)(=O)=O)CCSc1ccccc1` the figure was above 50.1 µM. The same measure, in the same setting: with `COc1cccc(-c2noc(C3CCN(Cc4ccccc4C)C3)n2)c1` (stereo not given) the figure was 10.1 µM; with `CCCNS(=O)(=O)c1nc2nc(C)cc(C)n2n1`, above 50.1 µM. In the case of `CC(NC(=O)c1ccc(Cl)cc1)c1nnc(SCC(=O)O)n1C` (stereo not given), the IC50 was 29.3 µM. On the same count and under the same terms, in the case of `CCc1nc(C(C)(C)N)[nH]c(=O)c1C` it was above 50.1 µM. In general, pIC50 refers to the IC50 on a negative log10 scale, so that one unit is a factor of ten. Higher therefore signals a small IC50. The compound `OC1CCN(c2ccnc(NCCc3ccccc3Cl)n2)C1` (stereo not given) showed a pIC50 of 5.797 and an IC50 of 2.35 µM.

As to `CCNc1ncc2c(n1)CN(c1ccc(OC(F)(F)F)cc1)C2=O`, the IC50 was above 50.1 µM. As for `Cc1ccc(CNC(=O)C2CCCCC(=O)N2)o1` (stereo not given), the IC50 is above 50.1 µM.

Compound `CCCC(=O)N1CCN(C(=O)NCC)CC1` showed an IC50 above 50.1 µM.

Turning to `COc1ccc(CCNC(=O)NCCCC(N)=O)cc1`, the half-maximal inhibitory concentration (IC50) is above 50.1 µM.

As for `Fc1ccc(-c2n[nH]cc2-c2ccnc(NCCN3CCCC3)n2)cc1`, the IC50 is 7.48 µM. `Cc1nn(C)c2c(N(C)Cc3ccco3)nc(C3CC3)nc12`: the half-inhibitory concentration (IC50) is 11.8 µM. Still for that read-out and setting: with `Fc1cnc(N2CCO[C@H]3CN(CC4CCCCC4)C[C@H]32)nc1` the figure was above 50.1 µM; with `CCCc1ccc2oc(C(=O)N3CCC(O)CC3)c(C)c2c1`, above 50.1 µM. Same read-out and setting: in the case of `Cc1ccnc(NC(=O)N(C)Cc2ccncc2)c1` it was above 50.1 µM; in that of `CCc1cnc(N2CCNCC2)s1`, above 50.1 µM. Regarding `COc1ccc(NS(=O)(=O)c2cnc(NC(C)=O)s2)cc1`, the IC50 was above 50.1 µM. The same measure, in the same setting: in the case of `CCCn1c(NCCc2ccccc2)nc2c(C)nn(C)c2c1=O` it was 31.5 µM. Still for that read-out and setting: with `c1cc(-c2c[nH]nc2C2CCCCC2)nc(N2CCCCCC2)n1` the figure was 6.23 µM. The same measure, in the same setting: in the case of `CCC1=NC(SCC(=O)c2ccc(C)cc2)c2cc(CC)sc2N1` (stereo not given) it was above 50.1 µM. In the case of `CC(=O)Nc1ncc(S(=O)(=O)Nc2cccc(F)c2)s1`, the IC50 is above 50.1 µM. `CSCc1ccc(C(=O)N(C)Cc2cnccn2)o1` had an IC50 above 50.1 µM. For the compound `COC(=O)CC(C1=Cc2ccccc2OC1)c1oc(C)cc(=O)c1O` (stereo not given), the pIC50 came out at 4.537 and the IC50 is above 50.1 µM. `CC(=O)Nc1ccc(CN2CCCOC(C)C2)cc1` (stereo not given): the concentration for half-maximal inhibition (IC50) was above 50.1 µM. `CCc1cc(N2CCC(NCCc3ccccc3F)CC2)nc(C)n1`: the pIC50 amounted to 4.968 and the IC50 was 8.65 µM.

Compound `Fc1ccccc1CN1CCn2ccnc2C1` showed an IC50 above 50.1 µM. Still for that read-out and setting: with `CN[C@@H]1COc2ccccc2[C@H](O)C1` the figure was above 50.1 µM; with `COc1ccc(C2CCCN2c2ccnc(C)c2Cl)c(OC)c1` (stereo not given), 14 µM. On the same count and under the same terms, in the case of `NC1CCN(C(=O)C2(c3cccc(F)c3)CC2)CC1` it was above 50.1 µM; in that of `O=C(C[C@@H]1COC[C@H]2CN(Cc3ccncc3)C[C@@H]12)N1CCCC1`, above 50.1 µM.

On to `CCN1CC2(CC1=O)CN(Cc1ccncc1)CCN(C(=O)C(C)C)C2` (stereo not given), for which the IC50 was above 50.1 µM. As to `COc1ncccc1C(=O)N1CCc2ccccc2C1`, the IC50 was above 50.1 µM. On the same count and under the same terms, with `Cc1ccc(CNC(=O)c2cc(C)n(C)n2)o1` the figure was above 50.1 µM; with `COCCC1(CN2CCC(C(N)=O)C2)CCC1` (stereo not given), above 50.1 µM.

In turn, `Cc1ccoc1C(=O)NC1CCN(Cc2csc3c(F)cccc23)CC1` had an IC50 of 8.38 µM. As for `Cc1[nH]c2ccccc2c1-c1ccnc(N[C@@H](CO)C(C)C)n1`, the IC50 is 19.8 µM. The compound `Cn1cc(CN2CCn3cc(Cn4cccn4)nc3C2)cn1` showed an IC50 above 50.1 µM. Compound `Cc1cncc(C(N)=O)c1` had an IC50 above 50.1 µM. On the same count and under the same terms, with `CC1CCN(CCNC(=O)Nc2ncnn2C)CC1` the figure was above 50.1 µM; with `NCCc1cc(C(F)(F)F)ccn1`, above 50.1 µM.

In turn, `CC(C)(C)c1ccc(-n2ncc3c2CCCC3N)cc1` (stereo not given) showed an IC50 of 16.4 µM. The same measure, in the same setting: in the case of `COc1ccc(NCC(=O)N2CCNC(=O)C2)c(C)c1` it was above 50.1 µM; in that of `N#CCCNC(=O)CN1CCCC1`, above 50.1 µM. As for `N#Cc1ccccc1NC(=O)CCN1CCCC(O)C1` (stereo not given), the half-inhibitory concentration (IC50) is above 50.1 µM. The same measure, in the same setting: with `CCN1CCN(Cc2nnnn2C2CC2)CC1` the figure was above 50.1 µM; with `Cn1cc(CN2C[C@@H]3COC[C@H](C(=O)Nc4cccnc4)[C@@H]3C2)cn1`, above 50.1 µM. Still for that read-out and setting: with `CN1C(=O)c2cccn2CC1CNC(=O)c1ccco1` (stereo not given) the figure was above 50.1 µM.

`CN(C)C(=O)CNC(CO)c1ccc(Cl)c(F)c1` (stereo not given) showed an IC50 above 50.1 µM. Regarding `CCC(=O)N1CCN(c2ncnc3cc4c(cc23)OCCO4)CC1`, the IC50 was above 50.1 µM. Still for that read-out and setting: with `Cc1ccc(C(=O)N2CCN(c3nccn3C)CC2)o1` the figure was above 50.1 µM. Regarding `O=C1c2ccc(F)cc2C(=O)N1Cc1nnsc1Cl`, the IC50 was above 50.1 µM.

The compound `Cc1cnc(N2CC[C@H]3[C@@H]2CCC(=O)N3c2ccccc2)nc1.O=C(O)C(F)(F)F` had a pIC50 of 4.34 and an IC50 above 50.1 µM. Consider `CC(=O)Nc1ncc(S(=O)(=O)Nc2cccc(O)c2)s1`, for which the IC50 was above 50.1 µM. The same measure, in the same setting: in the case of `CC(=O)c1ccc(OCC(O)Cn2ccnc2)cc1` (stereo not given) it was above 50.1 µM; in that of `CC(C)CCC(=O)N1CCC(C)(CO)C1` (stereo not given), above 50.1 µM. In turn, `COc1cccc(CNCC2CCOC2)c1` (stereo not given) gave an IC50 above 50.1 µM.

The compound `COc1cc2cc(C(=O)NCC(=O)O)n(C)c2c(OC)c1OC` gave an IC50 above 50.1 µM.

The compound `COc1ccc(-c2cncc(N)c2)cc1CO` had an IC50 above 50.1 µM. The same measure, in the same setting: with `CCCc1nc(NCCCn2ccnc2)c2c(n1)c(C)nn2CC` the figure was above 50.1 µM. The compound `CC(=O)Nc1ncc(S(=O)(=O)Nc2ccccc2)s1` gave an IC50 above 50.1 µM.

Regarding `Cn1ncc(C(=O)N2CCN(S(C)(=O)=O)CC2)c1Cl`, the IC50 is above 25.1 µM. Same read-out and setting: with `O=C(Nc1ccc(Br)cn1)C1CCCNC1` (stereo not given) the figure was above 50.1 µM. On the same count and under the same terms, with `CCc1ccccc1NC(=O)C1=NN(C)C(=O)CC1` the figure was above 50.1 µM; with `O=C1NCCN(C(=O)c2ccc(Br)o2)C1c1cccs1` (stereo not given), above 50.1 µM.

Regarding `CCC(C)Oc1ccc(CNCCc2c[nH]cn2)cc1Cl` (stereo not given), 29 µM corresponded to half-maximal inhibition (IC50). For `COC(=O)c1cnc(F)cn1`, the IC50 is above 50.1 µM.

`O=C1CCCCN1c1ccc(S(=O)(=O)NC2CC2)cc1` had an IC50 above 50.1 µM.

Turning to `c1csc(-c2noc(C3CNC3)n2)c1`, the IC50 was 2.96 µM.

`COc1cc2nc(NCc3scnc3C)nc(N)c2cc1OC` had an IC50 of 15.6 µM.

In turn, `CCCn1ncc(-c2ccnc(N[C@@H]3C[C@@H]4CC[C@H]3C4)n2)c1C` gave a 50% inhibitory concentration (IC50) of 5.59 µM.

In turn, `CCC(C)(CC(=O)OC)NCc1cc(C)on1` (stereo not given) gave a 50% inhibitory concentration (IC50) above 50.1 µM. `Fc1cc(Cl)cnc1N1CCCC(c2nccn2Cc2ccccn2)C1` (stereo not given): the IC50 is above 50.1 µM. `CCc1nc(Nc2ccc(C(=O)NC)cc2)c2c(n1)c(C)nn2CC` had a pIC50 below 4.3 and an IC50 of 37.2 µM. `CNC(=O)NC(=O)CCN1CCCC(C)C1` (stereo not given) showed an IC50 above 50.1 µM. `CSc1ccccc1NCC(=O)NC1CC1`: the IC50 is above 50.1 µM. The same measure, in the same setting: with `O=C(CC(F)(F)F)NC1CCN(CC2CC2)C1` (stereo not given) the figure was above 50.1 µM; with `O=C(Nc1ccncc1)NC1CCN(c2ccccc2OC(F)F)C1` (stereo not given), 1.87 µM; with `Cc1cccc(Cn2cc(Br)c(NS(C)(=O)=O)n2)c1`, above 50.1 µM. Still for that read-out and setting: in the case of `COCCN(CCOC)CC(=O)N(C)C` it was above 50.1 µM. The same measure, in the same setting: in the case of `Cc1cnc(N)c(C)c1` it was above 50.1 µM. In turn, `CCNc1ncc2c(n1)CN(c1ccc(Cl)cc1)C2=O` had a half-maximal inhibitory concentration (IC50) above 50.1 µM. In turn, `N#Cc1ccc(-n2nccc2N)cc1` gave an IC50 of 13.6 µM.

Consider `O=C(CCNC(=O)c1ccccc1F)Nc1nccs1`, for which the IC50 is above 50.1 µM. `Cc1ccc(CN2CCCn3c(nc(Cn4ccnc4)cc3=O)C2)o1` showed an IC50 above 50.1 µM. For `CN(C(=O)NCCCN1CCCC1)C1CCN(c2ccccc2)C1=O` (stereo not given), the IC50 is above 50.1 µM. Still for that read-out and setting: in the case of `CCOc1ccc(C(=O)N2CCC(N)CC2)cc1` it was above 50.1 µM; in that of `CCCc1nc(NCCOC)c2c(n1)c(C)nn2CC`, above 50.1 µM. Turning to `CCOCCCNc1cc(C)nn2cnnc12`, the IC50 was above 50.1 µM. On the same count and under the same terms, with `Cc1cc(NCCCOC(C)C)c2nncn2n1` the figure was above 50.1 µM. The same measure, in the same setting: in the case of `COc1ccc(C(=O)Nc2c(C(=O)N(C)C)nn(C)c2C)cc1` it was above 50.1 µM; in that of `CCOCCNC(=O)c1cccnc1Sc1cc(OC)ccc1OC`, above 50.1 µM.

Take `Cc1c(-c2ccccc2)nc2c(c(C)c(C)n2CCN(C)C)c1N`: the IC50 was 15.6 µM. Same read-out and setting: in the case of `CC(C)COC1CCN(S(=O)(=O)N2CCCC2)CC1` it was above 50.1 µM.

As to `CCCNC(=O)c1cc(-c2cnc(N3CCCC3)nc2)cn1C`, the pIC50 was 4.78 and 4.438. `CCC(=O)c1nccn1C` gave a half-inhibitory concentration (IC50) above 50.1 µM. Still for that read-out and setting: with `CCc1cnc(N2CCCC(CCC(N)=O)C2)nc1` (stereo not given) the figure was above 50.1 µM. On to `CS(=O)(=O)NCc1ccc(CN2CCCC2=O)cc1`, for which the IC50 was above 50.1 µM. Same read-out and setting: in the case of `CCn1nc(C)c2nc(C(C)C)nc(NC)c21` it was above 50.1 µM.

In turn, `CC(=O)N1CC2(CCCN(Cc3ccc(Cl)cc3)C2)Cc2ccccc21` (stereo not given) had a pIC50 of 4.953 and an IC50 of 10.4 µM. In the same order, the values of `O=C(c1ccc(-c2ccc(O)nc2)s1)N1CCSCC1` are 4.349 and 36.8 µM. In turn, `CCN(CC)Cc1nnnn1-c1ccccc1` gave an IC50 above 50.1 µM. For the compound `Cc1nnc2n1N=C(c1ccccc1)CS2`, the IC50 was above 50.1 µM. The same measure, in the same setting: in the case of `COc1ccccc1NC(=O)CC#N` it was above 50.1 µM. On the same count and under the same terms, with `Cn1ccnc1CN1CCC(c2ccnc(-c3cccc(O)c3)c2)C1` (stereo not given) the figure was 37.9 µM; with `O[C@@H]1CN(c2nc3ccccc3s2)CC[C@H]1c1ccc2c(c1)OCO2`, 5.27 µM; with `COc1ccc(C2=NOC(C(=O)N3CCCc4ccccc43)C2)cc1` (stereo not given), 27.9 µM. Regarding `CCn1nc(-c2ccc(F)cc2)oc1=O`, the IC50 was above 50.1 µM.

In turn, `CCC(CC)(CC)SCC(=O)N1CCNC(=O)C1` showed a concentration for half-maximal inhibition (IC50) above 50.1 µM.

`Cc1ocnc1CNC(=O)c1ccon1` had an IC50 above 50.1 µM.

Compound `NC(=O)C[C@@H](N)c1ccccc1Cl` had a half-maximal inhibitory concentration (IC50) above 50.1 µM.
